# Test results published in patent US20070129358A1, “Sbstituted chroman derivatives, processes for their preparation and their use as antiinflammatory agents” (priority 2005, published 2007).
# pIC50: −log10 of the molar value.
# What was measured:
# [1] = target: T1, progesterone receptor (PR) (Homo sapiens, UniProt P06401); experiment: Progesterone receptor binding with recombinantly prepared receptor
# T1 construct: made in house
# T1 sequence (P06401 1-933): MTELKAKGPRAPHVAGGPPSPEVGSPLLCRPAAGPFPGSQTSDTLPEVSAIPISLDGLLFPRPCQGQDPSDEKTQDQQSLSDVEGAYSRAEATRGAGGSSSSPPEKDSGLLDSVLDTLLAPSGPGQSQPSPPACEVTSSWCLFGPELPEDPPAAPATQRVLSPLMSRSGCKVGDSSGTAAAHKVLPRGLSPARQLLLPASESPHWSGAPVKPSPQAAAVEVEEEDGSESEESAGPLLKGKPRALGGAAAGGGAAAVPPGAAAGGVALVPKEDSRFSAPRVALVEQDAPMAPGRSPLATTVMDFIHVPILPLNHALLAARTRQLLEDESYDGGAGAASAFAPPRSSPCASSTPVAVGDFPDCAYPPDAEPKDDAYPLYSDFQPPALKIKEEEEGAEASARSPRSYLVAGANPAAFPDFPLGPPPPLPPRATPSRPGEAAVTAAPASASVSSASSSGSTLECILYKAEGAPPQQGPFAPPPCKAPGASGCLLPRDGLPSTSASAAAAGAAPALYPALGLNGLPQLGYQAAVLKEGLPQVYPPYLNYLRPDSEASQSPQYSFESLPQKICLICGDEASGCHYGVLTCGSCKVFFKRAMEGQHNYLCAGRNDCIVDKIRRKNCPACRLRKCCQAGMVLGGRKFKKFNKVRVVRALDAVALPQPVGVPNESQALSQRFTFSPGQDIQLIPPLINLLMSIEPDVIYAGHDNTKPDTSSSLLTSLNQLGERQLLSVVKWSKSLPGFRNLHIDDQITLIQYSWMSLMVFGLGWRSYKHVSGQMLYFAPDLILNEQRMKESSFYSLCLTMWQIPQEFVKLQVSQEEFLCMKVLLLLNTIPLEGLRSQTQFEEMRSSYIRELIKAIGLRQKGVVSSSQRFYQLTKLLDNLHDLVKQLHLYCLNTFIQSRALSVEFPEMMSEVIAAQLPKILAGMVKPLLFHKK
# From the text: (§1) The binding of the substances to the glucocorticoid receptor (GR) and further steroid hormone receptors (mineral corticoid receptor (MR), progesterone receptor (PR) and androgen receptor (AR)) is examined with the aid of recombinantly prepared receptors. Cytosol preparations of Sf9 cells which had been infected with recombinant baculoviruses which code for the GR are employed for the binding studies. Compared with the reference substance [^3H]-dexamethasdne, the substances show a high affinity for the GR. Thus, an IC50(GR)=20 nM and IC50(PR) >1 μM was measured for the compound of example 1 and an IC50(GR)=30 nM and IC50(PR) >1 μM was measured for the compound of example 2.
# [2] = target: T2, glucocorticoid receptor (GR) (Homo sapiens, UniProt P04150); experiment: Glucocorticoid receptor binding with recombinantly prepared receptor, [3H]-dexamethasone as reference; conditions: cytosol preparations of Sf9 cells infected with recombinant baculoviruses coding for GR
# T2 construct: made in house; host or cells: Sf9 cells infected with recombinant baculovirus (cytosol preparation)
# T2 sequence (P04150 1-777): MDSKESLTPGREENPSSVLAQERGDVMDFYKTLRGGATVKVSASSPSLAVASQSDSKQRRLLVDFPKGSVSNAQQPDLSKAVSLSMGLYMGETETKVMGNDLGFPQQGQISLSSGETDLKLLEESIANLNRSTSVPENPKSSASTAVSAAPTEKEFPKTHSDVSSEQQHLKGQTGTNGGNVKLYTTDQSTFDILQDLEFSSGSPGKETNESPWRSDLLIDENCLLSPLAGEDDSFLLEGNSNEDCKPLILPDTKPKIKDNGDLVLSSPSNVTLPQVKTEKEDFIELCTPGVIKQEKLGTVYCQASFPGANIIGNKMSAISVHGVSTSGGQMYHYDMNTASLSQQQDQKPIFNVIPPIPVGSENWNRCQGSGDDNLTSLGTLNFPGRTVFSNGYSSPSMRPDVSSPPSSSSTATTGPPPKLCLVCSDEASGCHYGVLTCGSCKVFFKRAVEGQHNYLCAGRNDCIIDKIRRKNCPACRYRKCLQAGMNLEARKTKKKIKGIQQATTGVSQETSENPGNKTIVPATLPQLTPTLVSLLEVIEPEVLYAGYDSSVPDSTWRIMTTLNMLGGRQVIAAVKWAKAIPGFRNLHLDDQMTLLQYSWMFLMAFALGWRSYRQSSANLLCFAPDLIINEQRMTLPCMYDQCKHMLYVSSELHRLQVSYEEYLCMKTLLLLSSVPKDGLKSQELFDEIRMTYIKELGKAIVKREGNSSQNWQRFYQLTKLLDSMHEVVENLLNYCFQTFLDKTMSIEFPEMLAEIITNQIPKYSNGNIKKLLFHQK
# From the text: as §1
pIC50 [1],pIC50 [2],SMILES
< 6.00,7.52,"CC1(CC(O)(CNc2cccc3[nH]c(=O)ccc23)C(F)(F)F)CCOc2ccccc21 (single isomer, unassigned) [Example 2, 5-{[2-Hydroxy-3-(4-methylchroman-4-yl)-2-trifluoro-methylpropyl]amino}quinolin-2{1H}-one]"
< 6.00,7.70,O=c1ccc2c(NCC(O)(CC3CCOc4ccccc43)C(F)(F)F)cccc2[nH]1 (stereo not shown) [Example 1]
